Assay results: PubChem BioAssay (NCI)
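Test compounds were applied to cells in 96-well plates for 48 hours at 5 doses. TGI is the concentration that stops growth completely.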

Experiments:
Test in all cases: growth of human tumour cells (NCI), 48 h
UO-31 renal = tested on: UO-31 renal
OVCAR-3 ovarian = tested on: OVCAR-3 ovarian
LOX IMVI melanoma = tested on: LOX IMVI melanoma
MOLT-4 leukemia = tested on: MOLT-4 leukemia
HCC-2998 colon = tested on: HCC-2998 colon
A498 renal = tested on: A498 renal
MDA-MB-435 = tested on: MDA-MB-435
COLO 205 colon = tested on: COLO 205 colon
SK-MEL-28 melanoma = tested on: SK-MEL-28 melanoma
OVCAR-5 ovarian = tested on: OVCAR-5 ovarian
SW-620 colon = tested on: SW-620 colon
CCRF-CEM leukemia = tested on: CCRF-CEM leukemia
CAKI-1 renal = tested on: CAKI-1 renal
NCI-H226 lung = tested on: NCI-H226 lung
MDA-MB-231 breast = tested on: MDA-MB-231 breast
SN12C renal = tested on: SN12C renal
HT29 colon = tested on: HT29 colon
UACC-257 melanoma = tested on: UACC-257 melanoma
HS 578T breast = tested on: HS 578T breast
SF-295 CNS = tested on: SF-295 CNS
HOP-92 NSCLC = tested on: HOP-92 NSCLC
UACC-62 melanoma = tested on: UACC-62 melanoma
HOP-62 NSCLC = tested on: HOP-62 NSCLC
M14 melanoma = tested on: M14 melanoma
SK-MEL-5 melanoma = tested on: SK-MEL-5 melanoma
SNB-75 CNS = tested on: SNB-75 CNS
TK-10 renal = tested on: TK-10 renal
MDA-N = tested on: MDA-N
OVCAR-4 ovarian = tested on: OVCAR-4 ovarian
786-0 renal = tested on: 786-0 renal
NCI/ADR-RES ovarian = tested on: NCI/ADR-RES ovarian
HCT-116 colon = tested on: HCT-116 colon
BT-549 breast = tested on: BT-549 breast
NCI-H460 lung = tested on: NCI-H460 lung
DU-145 prostate = tested on: DU-145 prostate
EKVX NSCLC = tested on: EKVX NSCLC
SK-OV-3 ovarian = tested on: SK-OV-3 ovarian
ACHN renal = tested on: ACHN renal
SNB-19 CNS = tested on: SNB-19 CNS
MCF7 breast = tested on: MCF7 breast
MALME-3M melanoma = tested on: MALME-3M melanoma
K-562 leukemia = tested on: K-562 leukemia
KM12 colon = tested on: KM12 colon
A549 NSCLC = tested on: A549 NSCLC
T-47D breast = tested on: T-47D breast
HL-60(TB) leukemia = tested on: HL-60(TB) leukemia
SK-MEL-2 melanoma = tested on: SK-MEL-2 melanoma
PC-3 prostate = tested on: PC-3 prostate
IGROV1 ovarian = tested on: IGROV1 ovarian
HCT-15 colon = tested on: HCT-15 colon
NCI-H23 lung = tested on: NCI-H23 lung
SF-539 CNS = tested on: SF-539 CNS
U251 CNS = tested on: U251 CNS
OVCAR-8 ovarian = tested on: OVCAR-8 ovarian
RXF 393 renal = tested on: RXF 393 renal
SF-268 CNS = tested on: SF-268 CNS
RPMI-8226 leukemia = tested on: RPMI-8226 leukemia
NCI-H522 lung = tested on: NCI-H522 lung

## O=C(CCN1CCOCC1)c1ccc(Oc2ccc(F)cc2)cc1
UO-31 renal
  TGI: 38.3 µM
OVCAR-3 ovarian
  TGI: 50.7 µM
LOX IMVI melanoma
  TGI: 48.5 µM
MOLT-4 leukemia
  TGI: 55.2 µM
HCC-2998 colon
  TGI: > 100 µM
A498 renal
  TGI: > 100 µM
MDA-MB-435
  TGI: > 100 µM
COLO 205 colon
  TGI: 47 µM
SK-MEL-28 melanoma
  TGI: 52.2 µM
OVCAR-5 ovarian
  TGI: 54.2 µM
SW-620 colon
  TGI: 62.6 µM
CCRF-CEM leukemia
  TGI: 57.1 µM
CAKI-1 renal
  TGI: 33 µM
NCI-H226 lung
  TGI: 78 µM
MDA-MB-231 breast
  TGI: 39 µM
SN12C renal
  TGI: > 100 µM
HT29 colon
  TGI: 34.2 µM
UACC-257 melanoma
  TGI: 32.9 µM
HS 578T breast
  TGI: 40.8 µM
SF-295 CNS
  TGI: > 100 µM
HOP-92 NSCLC
  TGI: 49.5 µM
UACC-62 melanoma
  TGI: 37 µM
HOP-62 NSCLC
  TGI: > 100 µM
M14 melanoma
  TGI: 38.3 µM
SK-MEL-5 melanoma
  TGI: > 100 µM
SNB-75 CNS
  TGI: 46.2 µM
TK-10 renal
  TGI: 32.5 µM
MDA-N
  TGI: 52.3 µM
OVCAR-4 ovarian
  TGI: > 100 µM
786-0 renal
  TGI: 30.8 µM
NCI/ADR-RES ovarian
  TGI: 69 µM
HCT-116 colon
  TGI: 44.2 µM
BT-549 breast
  TGI: 35.9 µM
NCI-H460 lung
  TGI: > 100 µM
DU-145 prostate
  TGI: > 100 µM
EKVX NSCLC
  TGI: 36.9 µM
SK-OV-3 ovarian
  TGI: > 100 µM
ACHN renal
  TGI: 32.1 µM
SNB-19 CNS
  TGI: > 100 µM
MCF7 breast
  TGI: 40.4 µM
MALME-3M melanoma
  TGI: 40.9 µM
K-562 leukemia
  TGI: 51.4 µM
KM12 colon
  TGI: 32.6 µM
A549 NSCLC
  TGI: > 100 µM
T-47D breast
  TGI: 42.6 µM
HL-60(TB) leukemia
  TGI: 78.7 µM
SK-MEL-2 melanoma
  TGI: 57.1 µM
PC-3 prostate
  TGI: 34.2 µM
IGROV1 ovarian
  TGI: 39.4 µM
HCT-15 colon
  TGI: 36.5 µM
NCI-H23 lung
  TGI: 70.4 µM
SF-539 CNS
  TGI: 38.7 µM
U251 CNS
  TGI: > 100 µM
OVCAR-8 ovarian
  TGI: 41.7 µM

## Oc1ccc(C=NCC2CCCN3CCCCC23)cc1 (stereo not drawn)
UO-31 renal
  TGI: > 56.7 µM
OVCAR-3 ovarian
  TGI: > 69.3 µM
LOX IMVI melanoma
  TGI: > 100 µM
MOLT-4 leukemia
  TGI: > 100 µM
HCC-2998 colon
  TGI: 40.4 µM
A498 renal
  TGI: 83.9 µM
MDA-MB-435
  TGI: 27 µM
COLO 205 colon
  TGI: > 66.7 µM
SK-MEL-28 melanoma
  TGI: 38.6 µM
OVCAR-5 ovarian
  TGI: > 59.5 µM
CAKI-1 renal
  TGI: 39.5 µM
NCI-H226 lung
  TGI: 58.4 µM
MDA-MB-231 breast
  TGI: 74.8 µM
SN12C renal
  TGI: 41.9 µM
HT29 colon
  TGI: 30.7 µM
UACC-257 melanoma
  TGI: 62.3 µM
HS 578T breast
  TGI: 85.5 µM
SF-295 CNS
  TGI: > 76.9 µM
HOP-92 NSCLC
  TGI: 67.3 µM
UACC-62 melanoma
  TGI: > 69.5 µM
HOP-62 NSCLC
  TGI: > 75.1 µM
M14 melanoma
  TGI: > 57.6 µM
SK-MEL-5 melanoma
  TGI: 51.4 µM
RXF 393 renal
  TGI: 43.9 µM
SNB-75 CNS
  TGI: > 96.5 µM
TK-10 renal
  TGI: 55.5 µM
MDA-N
  TGI: 39.4 µM
OVCAR-4 ovarian
  TGI: 42.3 µM
786-0 renal
  TGI: 36.7 µM
NCI/ADR-RES ovarian
  TGI: > 100 µM
HCT-116 colon
  TGI: 49.5 µM
BT-549 breast
  TGI: 61.5 µM
NCI-H460 lung
  TGI: 73.4 µM
DU-145 prostate
  TGI: 31.3 µM
EKVX NSCLC
  TGI: > 75.4 µM
SK-OV-3 ovarian
  TGI: 97.4 µM
ACHN renal
  TGI: 34.9 µM
SNB-19 CNS
  TGI: 63.3 µM
MCF7 breast
  TGI: > 100 µM
MALME-3M melanoma
  TGI: 74.1 µM
K-562 leukemia
  TGI: > 100 µM
KM12 colon
  TGI: 35.3 µM
A549 NSCLC
  TGI: > 62.8 µM
T-47D breast
  TGI: 71.3 µM
SK-MEL-2 melanoma
  TGI: 49.4 µM
PC-3 prostate
  TGI: > 100 µM
IGROV1 ovarian
  TGI: > 67.8 µM
HCT-15 colon
  TGI: 63 µM
SF-268 CNS
  TGI: > 68.5 µM
RPMI-8226 leukemia
  TGI: 86 µM
NCI-H23 lung
  TGI: > 62 µM
SF-539 CNS
  TGI: > 100 µM
U251 CNS
  TGI: 34.8 µM
OVCAR-8 ovarian
  TGI: > 100 µM
NCI-H522 lung
  TGI: 47.3 µM

## CC(=O)OCCn1c(Cc2ccc(C)cc2)nn(C(C)=O)c1=O
UO-31 renal
  TGI: > 100 µM
OVCAR-3 ovarian
  TGI: > 100 µM
LOX IMVI melanoma
  TGI: > 100 µM
MOLT-4 leukemia
  TGI: > 100 µM
HCC-2998 colon
  TGI: > 100 µM
A498 renal
  TGI: > 100 µM
MDA-MB-435
  TGI: > 100 µM
COLO 205 colon
  TGI: > 100 µM
SK-MEL-28 melanoma
  TGI: > 100 µM
OVCAR-5 ovarian
  TGI: > 100 µM
SW-620 colon
  TGI: > 100 µM
CAKI-1 renal
  TGI: > 100 µM
NCI-H226 lung
  TGI: > 100 µM
MDA-MB-231 breast
  TGI: > 100 µM
SN12C renal
  TGI: > 100 µM
HT29 colon
  TGI: > 100 µM
UACC-257 melanoma
  TGI: > 100 µM
HS 578T breast
  TGI: > 100 µM
SF-295 CNS
  TGI: > 100 µM
HOP-92 NSCLC
  TGI: > 100 µM
UACC-62 melanoma
  TGI: > 100 µM
M14 melanoma
  TGI: > 100 µM
SK-MEL-5 melanoma
  TGI: > 100 µM
TK-10 renal
  TGI: > 100 µM
MDA-N
  TGI: > 100 µM
OVCAR-4 ovarian
  TGI: > 100 µM
786-0 renal
  TGI: > 100 µM
NCI/ADR-RES ovarian
  TGI: > 100 µM
HCT-116 colon
  TGI: > 100 µM
BT-549 breast
  TGI: > 100 µM
NCI-H460 lung
  TGI: > 100 µM
DU-145 prostate
  TGI: > 100 µM
EKVX NSCLC
  TGI: > 100 µM
SK-OV-3 ovarian
  TGI: > 100 µM
ACHN renal
  TGI: > 100 µM
SNB-19 CNS
  TGI: > 100 µM
MCF7 breast
  TGI: > 100 µM
MALME-3M melanoma
  TGI: > 100 µM
K-562 leukemia
  TGI: > 100 µM
KM12 colon
  TGI: > 100 µM
A549 NSCLC
  TGI: > 100 µM
T-47D breast
  TGI: > 100 µM
HL-60(TB) leukemia
  TGI: > 100 µM
SK-MEL-2 melanoma
  TGI: > 100 µM
PC-3 prostate
  TGI: > 100 µM
IGROV1 ovarian
  TGI: > 100 µM
HCT-15 colon
  TGI: > 100 µM
SF-268 CNS
  TGI: > 100 µM
RPMI-8226 leukemia
  TGI: > 100 µM
NCI-H23 lung
  TGI: > 100 µM
SF-539 CNS
  TGI: > 100 µM
U251 CNS
  TGI: > 100 µM
OVCAR-8 ovarian
  TGI: > 100 µM
NCI-H522 lung
  TGI: > 100 µM
